# Measurements: US8802597B2, “Herbicidal pyrimidines” (E I du Pont de Nemours and Company, priority 2003, dated 2014)
# Where two headings read alike, the source gives them in different places.
# Legend:
# Type in all cases: in vivo
# [1] = system: velvetleaf (Abutilon theophrasti); assay: Test B pre/postemergence; settings: Abutilon theophrasti; for pest or weed control at 125 g/ha: 125 g ai/ha; for pest or weed control at 500 g/ha: 500 g ai/ha
# How it was run: (§1)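 Visual injury scored 0 (no effect) to 100 (complete control) versus untreated controls after 13 to 15 days in greenhouse. Treatments were pre- or postemergence sprays of surfactant-containing solvent formulations; postemergence plants at 1- to 4-leaf stage, 2 to 18 cm.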
# [2] = system: lambsquarters (Chenopodium album); assay: Test B pre/postemergence; settings: Chenopodium album; for pest or weed control at 125 g/ha: 125 g ai/ha; for pest or weed control at 500 g/ha: 500 g ai/ha
# How it was run: as §1
# [3] = system: giant foxtail (Setaria faberii); assay: Test B pre/postemergence; settings: Setaria faberi; for pest or weed control at 125 g/ha: 125 g ai/ha; for pest or weed control at 500 g/ha: 500 g ai/ha
# How it was run: as §1
# [4] = system: cocklebur (Xanthium strumarium); assay: Test B pre/postemergence; settings: Xanthium strumarium; for pest or weed control at 125 g/ha: 125 g ai/ha; for pest or weed control at 500 g/ha: 500 g ai/ha
# How it was run: as §1
# [5] = system: crabgrass (Digitaria sanguinalis); assay: Test B pre/postemergence; settings: Digitaria sanguinalis; for pest or weed control at 125 g/ha: 125 g ai/ha; for pest or weed control at 500 g/ha: 500 g ai/ha
# How it was run: as §1
# [6] = system: pigweed (Amaranthus retroflexus); assay: Test B pre/postemergence; settings: Amaranthus retroflexus; for pest or weed control at 125 g/ha: 125 g ai/ha; for pest or weed control at 500 g/ha: 500 g ai/ha
# How it was run: as §1
# [7] = system: barnyardgrass (Echinochloa crus-galli); assay: Test B pre/postemergence; settings: Echinochloa crus-galli; for pest or weed control at 125 g/ha: 125 g ai/ha; for pest or weed control at 500 g/ha: 500 g ai/ha
# How it was run: as §1
# [8] = system: morningglory (Ipomoea coccinea); assay: Test B pre/postemergence; settings: Ipomoea; for pest or weed control at 125 g/ha: 125 g ai/ha; for pest or weed control at 500 g/ha: 500 g ai/ha
# How it was run: as §1
# [9] = system: wheat (Triticum aestivum); assay: Test B pre/postemergence; settings: Triticum aestivum; for plant injury at 125 g/ha: 125 g ai/ha; for plant injury at 500 g/ha: 500 g ai/ha
# How it was run: as §1
# [10] = system: Surinam grass (Brachiaria decumbens); assay: Test B pre/postemergence; settings: Urochloa decumbens; for pest or weed control at 125 g/ha: 125 g ai/ha; for pest or weed control at 500 g/ha: 500 g ai/ha
# How it was run: as §1
# corn (Zea mays) = assay: Test B pre/postemergence; settings: Zea mays
# How it was run: as §1
# [11] = system: blackgrass (Alopecurus myosuroides); assay: Test B postemergence; settings: Alopecurus myosuroides, post-emergence
# How it was run: as §1
# wild oat (Avena fatua) = assay: Test B postemergence; settings: Avena fatua, post-emergence
# How it was run: as §1
# rice (Oryza sativa) = assay: Test B flooded paddy test; settings: Oryza sativa, Flood, 1000 g ai/ha; scale 0 to 100; read-out: Plant response rating, Rice
# How it was run: (§2)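 Rice, umbrella sedge, duck salad and barnyardgrass grown to 2-leaf stage under flooded paddy conditions and treated with formulated test chemicals. Kept in greenhouse 13–15 days, then visually rated against untreated controls on a 0–100 scale (0 no effect, 100 complete control).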
# [12] = system: barnyardgrass (Echinochloa crus-galli); assay: Test B flooded paddy test; settings: Echinochloa crus-galli, Flood, 1000 g ai/ha; scale 0 (no effect) to 100 (complete control); read-out: Plant response rating, Barnyardgrass
# How it was run: as §2
# [13] = system: duck salad (Heteranthera limosa); assay: Test B flooded paddy test; settings: Heteranthera limosa, Flood, 1000 g ai/ha; scale 0 to 100; read-out: Plant response rating, Ducksalad
# How it was run: as §2
# [14] = system: umbrella sedge (Cyperus difformis); assay: Test B flooded paddy test; settings: Cyperus difformis, Flood, 1000 g ai/ha; scale 0 to 100; read-out: Plant response rating, Sedge, Umbrella
# How it was run: as §2
smiles,measurement,setting,value
Nc1nc(C2CC2)nc(C=O)c1Br [Compound 26],pest or weed control at 125 g/ha,"[1]; post-emergence, Postemergence, scale 0 to 100 (0 no effect, 100 complete control), read-out: Velvetleaf plant response rating",40%
same,pest or weed control at 500 g/ha,"[1]; post-emergence, Postemergence, scale 0 to 100, read-out: Plant response rating, Velvetleaf",70%
same,pest or weed control at 125 g/ha,"[1]; pre-emergence, Preemergence, scale 0 to 100 (0 no effect, 100 complete control), read-out: Plant response rating, Velvetleaf",90%
same,pest or weed control at 500 g/ha,"[1]; pre-emergence, Preemergence, scale 0 to 100 (0 no effect, 100 complete control), read-out: Velvetleaf plant response rating",100%
same,pest or weed control at 125 g/ha,"[2]; post-emergence, Postemergence, scale 0 to 100 (0 no effect, 100 complete control), read-out: Lambsquarters plant response rating",70%
same,pest or weed control at 500 g/ha,"[2]; post-emergence, Postemergence, scale 0 to 100, read-out: Plant response rating, Lambsquarters",80%
same,pest or weed control at 125 g/ha,"[2]; pre-emergence, Preemergence, scale 0 to 100 (0 no effect, 100 complete control), read-out: Plant response rating, Lambsquarters",100%
same,pest or weed control at 500 g/ha,"[2]; pre-emergence, Preemergence, scale 0 to 100 (0 no effect, 100 complete control), read-out: Lambsquarters plant response rating",100%
same,pest or weed control at 125 g/ha,"[3]; post-emergence, Postemergence, scale 0 to 100 (0 no effect, 100 complete control), read-out: Foxtail, Giant plant response rating",30%
same,pest or weed control at 500 g/ha,"[3]; post-emergence, Postemergence, scale 0 to 100, read-out: Plant response rating, Foxtail, Giant",40%
same,pest or weed control at 125 g/ha,"[3]; pre-emergence, Preemergence, scale 0 to 100 (0 no effect, 100 complete control), read-out: Plant response rating, Foxtail, Giant",10%
same,pest or weed control at 500 g/ha,"[3]; pre-emergence, Preemergence, scale 0 to 100 (0 no effect, 100 complete control), read-out: Foxtail, Giant plant response rating",80%
same,pest or weed control at 125 g/ha,"[4]; post-emergence, Postemergence, scale 0 to 100 (0 no effect, 100 complete control), read-out: Cocklebur plant response rating",80%
same,pest or weed control at 500 g/ha,"[4]; post-emergence, Postemergence, scale 0 to 100, read-out: Plant response rating, Cocklebur",90%
same,pest or weed control at 125 g/ha,"[4]; pre-emergence, Preemergence, scale 0 to 100 (0 no effect, 100 complete control), read-out: Plant response rating, Cocklebur",80%
same,pest or weed control at 500 g/ha,"[4]; pre-emergence, Preemergence, scale 0 to 100 (0 no effect, 100 complete control), read-out: Cocklebur plant response rating",90%
same,pest or weed control at 125 g/ha,"[5]; post-emergence, Postemergence, scale 0 to 100 (0 no effect, 100 complete control), read-out: Crabgrass plant response rating",40%
same,pest or weed control at 500 g/ha,"[5]; post-emergence, Postemergence, scale 0 to 100, read-out: Plant response rating, Crabgrass",70%
same,pest or weed control at 125 g/ha,"[5]; pre-emergence, Preemergence, scale 0 to 100 (0 no effect, 100 complete control), read-out: Plant response rating, Crabgrass",30%
same,pest or weed control at 500 g/ha,"[5]; pre-emergence, Preemergence, scale 0 to 100 (0 no effect, 100 complete control), read-out: Crabgrass plant response rating",90%
same,pest or weed control at 125 g/ha,"[6]; post-emergence, Postemergence, scale 0 to 100 (0 no effect, 100 complete control), read-out: Pigweed plant response rating",70%
same,pest or weed control at 500 g/ha,"[6]; post-emergence, Postemergence, scale 0 to 100, read-out: Plant response rating, Pigweed",80%
same,pest or weed control at 125 g/ha,"[6]; pre-emergence, Preemergence, scale 0 to 100 (0 no effect, 100 complete control), read-out: Plant response rating, Pigweed",90%
same,pest or weed control at 500 g/ha,"[6]; pre-emergence, Preemergence, scale 0 to 100 (0 no effect, 100 complete control), read-out: Pigweed plant response rating",100%
same,pest or weed control at 125 g/ha,"[7]; post-emergence, Postemergence, scale 0 to 100 (0 no effect, 100 complete control), read-out: Barnyardgrass plant response rating",20%
same,pest or weed control at 500 g/ha,"[7]; post-emergence, Postemergence, scale 0 to 100, read-out: Plant response rating, Barnyardgrass",60%
same,pest or weed control at 125 g/ha,"[7]; pre-emergence, Preemergence, scale 0 to 100 (0 no effect, 100 complete control), read-out: Plant response rating, Barnyardgrass",50%
same,pest or weed control at 500 g/ha,"[7]; pre-emergence, Preemergence, scale 0 to 100 (0 no effect, 100 complete control), read-out: Barnyardgrass plant response rating",90%
same,pest or weed control at 125 g/ha,"[8]; post-emergence, Postemergence, scale 0 to 100 (0 no effect, 100 complete control), read-out: Morningglory plant response rating",70%
same,pest or weed control at 500 g/ha,"[8]; post-emergence, Postemergence, scale 0 to 100, read-out: Plant response rating, Morningglory",80%
same,pest or weed control at 125 g/ha,"[8]; pre-emergence, Preemergence, scale 0 to 100 (0 no effect, 100 complete control), read-out: Plant response rating, Morningglory",90%
same,pest or weed control at 500 g/ha,"[8]; pre-emergence, Preemergence, scale 0 to 100 (0 no effect, 100 complete control), read-out: Morningglory plant response rating",100%
same,plant injury at 125 g/ha,"[9]; post-emergence, Postemergence, scale 0 to 100 (0 no effect, 100 complete control), read-out: Wheat plant response rating",30%
same,plant injury at 500 g/ha,"[9]; post-emergence, Postemergence, scale 0 to 100, read-out: Plant response rating, Wheat",30%
same,plant injury at 125 g/ha,"[9]; pre-emergence, Preemergence, scale 0 to 100 (0 no effect, 100 complete control), read-out: Plant response rating, Wheat",30%
same,plant injury at 500 g/ha,"[9]; pre-emergence, Preemergence, scale 0 to 100 (0 no effect, 100 complete control), read-out: Wheat plant response rating",60%
same,pest or weed control at 125 g/ha,"[10]; post-emergence, Postemergence, scale 0 to 100 (0 no effect, 100 complete control), read-out: Surinam Grass plant response rating",30%
same,pest or weed control at 500 g/ha,"[10]; post-emergence, Postemergence, scale 0 to 100, read-out: Plant response rating, Surinam Grass",60%
same,pest or weed control at 125 g/ha,"[10]; pre-emergence, Preemergence, scale 0 to 100 (0 no effect, 100 complete control), read-out: Plant response rating, Surinam Grass",10%
same,pest or weed control at 500 g/ha,"[10]; pre-emergence, Preemergence, scale 0 to 100 (0 no effect, 100 complete control), read-out: Surinam Grass plant response rating",80%
same,plant injury at 125 g/ha,"corn (Zea mays); post-emergence, Postemergence, 125 g ai/ha, scale 0 to 100 (0 no effect, 100 complete control), read-out: Corn plant response rating",0%
same,"Corn plant response rating (crop injury, 0 = no effect, 100 = complete kill) at 500 g/ha","corn (Zea mays); post-emergence, Postemergence, 500 g ai/ha, scale 0 to 100",20%
same,"Corn plant response rating (crop injury, 0 = no effect, 100 = complete kill) at 125 g/ha","corn (Zea mays); pre-emergence, Preemergence, 125 g ai/ha, scale 0 to 100 (0 no effect, 100 complete control)",30%
same,plant injury at 500 g/ha,"corn (Zea mays); pre-emergence, Preemergence, 500 g ai/ha, scale 0 to 100 (0 no effect, 100 complete control), read-out: Corn plant response rating",80%
same,pest or weed control at 125 g/ha,"[11]; 125 g ai/ha, scale 0 to 100 (0 no effect, 100 complete control), read-out: Blackgrass plant response rating",40%
same,pest or weed control at 500 g/ha,"[11]; 500 g ai/ha, scale 0 to 100, read-out: Plant response rating, Blackgrass",70%
same,pest or weed control at 125 g/ha,"wild oat (Avena fatua); 125 g ai/ha, scale 0 to 100 (0 no effect, 100 complete control), read-out: Oat, Wild plant response rating",30%
same,pest or weed control at 500 g/ha,"wild oat (Avena fatua); 500 g ai/ha, scale 0 to 100, read-out: Plant response rating, Oat, Wild",40%
same,plant injury at 1000 g/ha,rice (Oryza sativa),70%
same,pest or weed control at 1000 g/ha,[12],60%
same,pest or weed control at 1000 g/ha,[13],90%
same,pest or weed control at 1000 g/ha,[14],80%
